{
  "source": "patent US20230031406A1",
  "about": "“COMPOUNDS AND COMPOSITIONS FOR TREATING CONDITIONS ASSOCIATED WITH NLRP ACTIVITY” (Novartis AG, priority 2018, published 2023)",
  "data": [
    {"tested_on": "PMA-differentiated THP-1 cells", "assay": "IL-1β production in PMA-differentiated THP-1 cells stimulated with gramicidin (hTHP-1 assay containing 2% fetal bovine serum; Procedures 1 and 2)", "assay_type": "cell-based, human", "details": "Homo sapiens, THP-1, Table B3; hTHP-1 assay, 2% fetal bovine serum; class symbols; read-out: IC50", "summary_of_the_method": "(§1)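 IL-1β release from PMA-differentiated THP-1 macrophage-like cells was triggered by 5 μM gramicidin for 2 h after 1 h compound exposure, then measured by HTRF.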", "units": {"IC50": "µM"}, "values": [
      {"smiles": "CCn1cc(F)c(S(N)(=O)=NC(=O)Nc2c(C)c(CC(F)(F)F)nc3c2CCC3)n1", "note": "(single isomer, unassigned) [Example 717, (R) or (S)-1-ethyl-4-fluoro-N′-((3-methyl-2-(2,2,2-trifluoroethyl)-6,7-dihydro-5H-cyclopenta[b]pyridin-4-yl)carbamoyl)-1H-pyrazole-3-sulfonimidamide]", "IC50": "1 to 5"},
      {"smiles": "Cc1c(C(F)(F)F)nc2c(c1NC(=O)N=S(N)(=O)c1cc(CO)n(C(C)C)n1)CCC2", "note": "(single isomer, unassigned) [Example 719, (S) or (R)-5-(hydroxymethyl)-1-isopropyl-N′-((3-methyl-2-(trifluoromethyl)-6,7-dihydro-5H-cyclopenta[b]pyridin-4-yl)carbamoyl)-1H-pyrazole-3-sulfonimidamide]", "IC50": "1 to 5"},
      {"smiles": "Cc1c(CC(F)(F)F)nc2c(c1NC(=O)N=S(N)(=O)c1nn(C(F)F)cc1F)CCC2", "note": "(single isomer, unassigned) [Example 723, (R) or (S)-1-(difluoromethyl)-4-fluoro-N′-((3-methyl-2-(2,2,2-trifluoroethyl)-6,7-dihydro-5H-cyclopenta[b]pyridin-4-yl)carbamoyl)-1H-pyrazole-3-sulfonimidamide]", "IC50": "1 to 5"},
      {"smiles": "CCn1nc(S(N)(=O)=NC(=O)Nc2c3c(nc4c2CCC4(C)C)CCC3)cc1CO", "note": "(single isomer, unassigned) [Example 726, (R) or (S)-N′-((3,3-dimethyl-1,2,3,5,6,7-hexahydrodicyclopenta[b,e]pyridin-8-yl)carbamoyl)-1-ethyl-5-(hydroxymethyl)-1H-pyrazole-3-sulfonimidamide]", "IC50": "0.2 to 1"}
    ]},
    {"tested_on": "PMA-differentiated THP-1 cells", "assay": "IL-1β production in PMA-differentiated THP-1 cells stimulated with gramicidin (hTHP-1 assay containing 2% fetal bovine serum; Procedures 1 and 2)", "assay_type": "cell-based, human", "details": "Homo sapiens, THP-1, Table B3; hTHP-1 assay, 2% fetal bovine serum; numeric values; read-out: IC50", "summary_of_the_method": "as §1", "units": {"IC50": "µM"}, "values": [
      {"smiles": "CCn1cc(F)c(S(N)(=O)=NC(=O)Nc2c(C)c(CC(F)(F)F)nc3c2CCC3)n1", "note": "(single isomer, unassigned) [Example 718, (S) or (R)-1-ethyl-4-fluoro-N′-((3-methyl-2-(2,2,2-trifluoroethyl)-6,7-dihydro-5H-cyclopenta[b]pyridin-4-yl)carbamoyl)-1H-pyrazole-3-sulfonimidamide]", "IC50": "> 30"},
      {"smiles": "Cc1c(C(F)(F)F)nc2c(c1NC(=O)N=S(N)(=O)c1cc(CO)n(C(C)C)n1)CCC2", "note": "(single isomer, unassigned) [Example 720, (R) or (S)-5-(hydroxymethyl)-1-isopropyl-N′-((3-methyl-2-(trifluoromethyl)-6,7-dihydro-5H-cyclopenta[b]pyridin-4-yl)carbamoyl)-1H-pyrazole-3-sulfonimidamide]", "IC50": "~30"},
      {"smiles": "Cc1c(CC(F)(F)F)nc2c(c1NC(=O)N=S(N)(=O)c1nn(C(F)F)cc1F)CCC2", "note": "(single isomer, unassigned) [Example 724, (S) or (R)-1-(difluoromethyl)-4-fluoro-N′-((3-methyl-2-(2,2,2-trifluoroethyl)-6,7-dihydro-5H-cyclopenta[b]pyridin-4-yl)carbamoyl)-1H-pyrazole-3-sulfonimidamide]", "IC50": "> 30"},
      {"smiles": "CCn1nc(S(N)(=O)=NC(=O)Nc2c3c(nc4c2CCC4(C)C)CCC3)cc1CO", "note": "(single isomer, unassigned) [Example 725, (S) or (R)-N′-((3,3-dimethyl-1,2,3,5,6,7-hexahydrodicyclopenta[b,e]pyridin-8-yl)carbamoyl)-1-ethyl-5-(hydroxymethyl)-1H-pyrazole-3-sulfonimidamide]", "IC50": "> 30"}
    ]},
    {"tested_on": "PMA-differentiated THP-1 cells", "assay": "IL-1β production in PMA-differentiated THP-1 cells stimulated with gramicidin (hTHP-1 assay containing 2% fetal bovine serum; Procedures 1 and 2)", "assay_type": "cell-based, human", "details": "Homo sapiens, THP-1, Table B4; 2% fetal bovine serum; class symbols; read-out: hTHP-1 IC50", "summary_of_the_method": "as §1", "units": {"IC50": "µM"}, "values": [
      {"smiles": "C[C@H]1CCc2c1nc1c(c2NC(=O)N=S(N)(=O)c2cnc([C@@](C)(O)CO)s2)CCC1", "note": "(single isomer, unassigned) [Example 729]", "IC50": "1 to 5"},
      {"smiles": "C[C@@H]1CCc2c1nc1c(c2NC(=O)N=S(N)(=O)c2cnc([C@@](C)(O)CO)s2)CCC1", "note": "(single isomer, unassigned) [Example 730]", "IC50": "0.2 to 1"},
      {"smiles": "C[C@@H]1CCc2c1nc1c(c2NC(=O)N=S(N)(=O)c2cnc([C@](C)(O)CO)s2)CCC1", "note": "(single isomer, unassigned) [Example 731]", "IC50": "0.04 to 0.2"},
      {"smiles": "C[C@H]1CCc2c1nc1c(c2NC(=O)N=S(N)(=O)c2cnc([C@](C)(O)CO)s2)CCC1", "note": "(single isomer, unassigned) [Example 732]", "IC50": "1 to 5"}
    ]},
    {"tested_on": "PMA-differentiated THP-1 cells", "assay": "IL-1β production in PMA-differentiated THP-1 cells stimulated with gramicidin (hTHP-1 assay containing 2% fetal bovine serum; Procedures 1 and 2)", "assay_type": "cell-based, human", "details": "Table B3; hTHP-1 assay, 2% fetal bovine serum; class symbols; read-out: IC50", "summary_of_the_method": "as §1", "units": {"IC50": "µM"}, "values": [
      {"smiles": "Cc1c(C(F)(F)F)nc2c(c1NC(=O)N=S(N)(=O)c1cnc(C(C)(C)O)s1)CCC2C", "note": "(single isomer, unassigned) [Example 706, (R, R) or (R, S)-N′-((3,7-dimethyl-2-(trifluoromethyl)-6,7-dihydro-5H-cyclopenta[b]pyridin-4-yl)carbamoyl)-2-(2-hydroxypropan-2-yl)thiazole-5-sulfonimidamide]", "IC50": "0.2 to 1"},
      {"smiles": "CCn1cc(F)c(S(N)(=O)=NC(=O)Nc2c3c(nc(C4CC4)c2C2CC2)CCC3)n1", "note": "(single isomer, unassigned) [Example 707, (R) or (S)-N′-((2,3-dicyclopropyl-6,7-dihydro-5H-cyclopenta[b]pyridin-4-yl)carbamoyl)-1-ethyl-4-fluoro-1H-pyrazole-3-sulfonimidamide]", "IC50": "0.008 to 0.04"},
      {"smiles": "CCn1cc(F)c(S(N)(=O)=NC(=O)Nc2c3c(nc(C4CC4)c2C2CC2)CCC3)n1", "note": "(single isomer, unassigned) [Example 708, (S) or (R)-N′-((2,3-dicyclopropyl-6,7-dihydro-5H-cyclopenta[b]pyridin-4-yl)carbamoyl)-1-ethyl-4-fluoro-1H-pyrazole-3-sulfonimidamide]", "IC50": "5 to 30"},
      {"smiles": "CCc1c(C(F)(F)F)nc2c(c1NC(=O)N=S(N)(=O)c1nn(C(F)F)cc1F)CCC2", "note": "(single isomer, unassigned) [Example 709, (R) or (S)-1-(difluoromethyl)-N′-((3-ethyl-2-(trifluoromethyl)-6,7-dihydro-5H-cyclopenta[b]pyridin-4-yl)carbamoyl)-4-fluoro-1H-pyrazole-3-sulfonimidamide]", "IC50": "1 to 5"},
      {"smiles": "CCc1c(C(F)(F)F)nc2c(c1NC(=O)N=S(N)(=O)c1nn(C(F)F)cc1F)CCC2", "note": "(single isomer, unassigned) [Example 710, (S) or (R)-1-(difluoromethyl)-N′-((3-ethyl-2-(trifluoromethyl)-6,7-dihydro-5H-cyclopenta[b]pyridin-4-yl)carbamoyl)-4-fluoro-1H-pyrazole-3-sulfonimidamide]", "IC50": "5 to 30"},
      {"smiles": "CCn1cc(F)c(S(N)(=O)=NC(=O)Nc2c3c(nc4c2CC[C@@H]4C)CCC3)n1", "note": "(single isomer, unassigned) [Example 711, (R) or (S)-1-ethyl-4-fluoro-N′-(((S)-3-methyl-1,2,3,5,6,7-hexahydrodicyclopenta[b,e]pyridin-8-yl)carbamoyl)-1H-pyrazole-3-sulfonimidamide]", "IC50": "0.04 to 0.2"},
      {"smiles": "CCn1cc(F)c(S(N)(=O)=NC(=O)Nc2c3c(nc4c2CC[C@@H]4C)CCC3)n1", "note": "(single isomer, unassigned) [Example 712, (S) or (R)-1-ethyl-4-fluoro-N′-(((S)-3-methyl-1,2,3,5,6,7-hexahydrodicyclopenta[b,e]pyridin-8-yl)carbamoyl)-1H-pyrazole-3-sulfonimidamide]", "IC50": "5 to 30"},
      {"smiles": "CCn1cc(F)c(S(N)(=O)=NC(=O)Nc2c(C)c(C3CC3)nc3c2CCC3)n1", "note": "(single isomer, unassigned) [Example 713, (R) or (S)-N′-((2-cyclopropyl-3-methyl-6,7-dihydro-5H-cyclopenta[b]pyridin-4-yl)carbamoyl)-1-ethyl-4-fluoro-1H-pyrazole-3-sulfonimidamide]", "IC50": "0.04 to 0.2"},
      {"smiles": "CCn1cc(F)c(S(N)(=O)=NC(=O)Nc2c(C)c(C3CC3)nc3c2CCC3)n1", "note": "(single isomer, unassigned) [Example 714, (S) or (R)-N′-((2-cyclopropyl-3-methyl-6,7-dihydro-5H-cyclopenta[b]pyridin-4-yl)carbamoyl)-1-ethyl-4-fluoro-1H-pyrazole-3-sulfonimidamide]", "IC50": "1 to 5"},
      {"smiles": "CCn1cc(F)c(S(N)(=O)=NC(=O)Nc2c3c(nc4c2CCC4(C)C)CCC3)n1", "note": "(single isomer, unassigned) [Example 715, (R) or (S)-N′-((3,3-dimethyl-1,2,3,5,6,7-hexahydrodicyclopenta[b,e]pyridin-8-yl)carbamoyl)-1-ethyl-4-fluoro-1H-pyrazole-3-sulfonimidamide]", "IC50": "< 0.008"},
      {"smiles": "CCn1cc(F)c(S(N)(=O)=NC(=O)Nc2c3c(nc4c2CCC4(C)C)CCC3)n1", "note": "(single isomer, unassigned) [Example 716, (S) or (R)-N′-((3,3-dimethyl-1,2,3,5,6,7-hexahydrodicyclopenta[b,e]pyridin-8-yl)carbamoyl)-1-ethyl-4-fluoro-1H-pyrazole-3-sulfonimidamide]", "IC50": "1 to 5"},
      {"smiles": "CC1(C)CCc2c1nc1c(c2NC(=O)N=S(N)(=O)c2nn(C(F)F)cc2F)CCC1", "note": "(single isomer, unassigned) [Example 721, (R) or (S)-1-(difluoromethyl)-N′-((3,3-dimethyl-1,2,3,5,6,7-hexahydrodicyclopenta[b,e]pyridin-8-yl)carbamoyl)-4-fluoro-1H-pyrazole-3-sulfonimidamide]", "IC50": "0.04 to 0.2"},
      {"smiles": "CC1(C)CCc2c1nc1c(c2NC(=O)N=S(N)(=O)c2nn(C(F)F)cc2F)CCC1", "note": "(single isomer, unassigned) [Example 722, (S) or (R)-1-(difluoromethyl)-N′-((3,3-dimethyl-1,2,3,5,6,7-hexahydrodicyclopenta[b,e]pyridin-8-yl)carbamoyl)-4-fluoro-1H-pyrazole-3-sulfonimidamide]", "IC50": "1 to 5"},
      {"smiles": "Cc1nc2c(c(NC(=O)N=S(N)(=O)c3nn(C(F)F)cc3F)c1-c1ccccc1)CCC2", "note": "(single isomer, unassigned) [Example 727, (R) or (S)-1-(difluoromethyl)-4-fluoro-N′-((2-methyl-3-phenyl-6,7-dihydro-5H-cyclopenta[b]pyridin-4-yl)carbamoyl)-1H-pyrazole-3-sulfonimidamide]", "IC50": "0.04 to 0.2"},
      {"smiles": "Cc1nc2c(c(NC(=O)N=S(N)(=O)c3nn(C(F)F)cc3F)c1-c1ccccc1)CCC2", "note": "(single isomer, unassigned) [Example 728, (S) or (R)-1-(difluoromethyl)-4-fluoro-N′-((2-methyl-3-phenyl-6,7-dihydro-5H-cyclopenta[b]pyridin-4-yl)carbamoyl)-1H-pyrazole-3-sulfonimidamide]", "IC50": "1 to 5"}
    ]}
  ]
}
